Experiments:
DgcA (Bd0367) = target: T1, DgcA (Bd0367) (Bdellovibrio bacteriovorus, UniProt Q6MQU2); experiment: diguanylyl cyclase assay, HPLC; assay type: biochemical; conditions: MBP-DgcA
T1 construct: gene pleD; MBP fusion, expressed in and purified from E. coli; MBP kept
T1 sequence (Q6MQU2 1-343): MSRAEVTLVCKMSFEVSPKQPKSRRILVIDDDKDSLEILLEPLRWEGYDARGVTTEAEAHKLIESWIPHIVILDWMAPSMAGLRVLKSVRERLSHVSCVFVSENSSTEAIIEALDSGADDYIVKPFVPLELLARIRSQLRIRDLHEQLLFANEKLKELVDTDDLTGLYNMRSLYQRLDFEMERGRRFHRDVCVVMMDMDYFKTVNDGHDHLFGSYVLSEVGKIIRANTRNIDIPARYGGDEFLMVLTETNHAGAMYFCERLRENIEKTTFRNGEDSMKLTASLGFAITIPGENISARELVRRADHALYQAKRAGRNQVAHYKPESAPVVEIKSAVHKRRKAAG

DgcC (Bd1434) = target: T2, DgcC (Bd1434) (Bdellovibrio bacteriovorus, UniProt Q6MN29); experiment: diguanylyl cyclase assay, HPLC; assay type: biochemical; conditions: MBP-DgcC
T2 construct: MBP fusion, expressed in and purified from E. coli; MBP kept; natural GGEEF motif
T2 sequence (Q6MN29 1-408): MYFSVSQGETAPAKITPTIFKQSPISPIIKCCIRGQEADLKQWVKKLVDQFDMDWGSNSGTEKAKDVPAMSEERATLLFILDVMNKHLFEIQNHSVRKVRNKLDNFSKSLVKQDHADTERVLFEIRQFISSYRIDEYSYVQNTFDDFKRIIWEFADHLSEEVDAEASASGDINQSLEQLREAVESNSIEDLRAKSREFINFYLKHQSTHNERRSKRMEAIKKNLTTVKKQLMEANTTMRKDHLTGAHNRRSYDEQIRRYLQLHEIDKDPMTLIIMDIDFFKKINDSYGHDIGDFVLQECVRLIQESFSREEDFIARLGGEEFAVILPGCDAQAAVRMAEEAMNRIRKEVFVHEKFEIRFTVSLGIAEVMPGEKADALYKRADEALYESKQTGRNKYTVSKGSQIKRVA

DgcB (Bd0742) = target: T3, DgcB (Bd0742) (Bdellovibrio bacteriovorus, UniProt Q6MPU8); experiment: diguanylyl cyclase assay, HPLC; assay type: biochemical; conditions: MBP-DgcB; activity only after about 30 min incubation at 37°C
T3 construct: MBP fusion, expressed in and purified from E. coli; MBP kept; copurifies with c-di-GMP
T3 sequence (Q6MPU8 1-320): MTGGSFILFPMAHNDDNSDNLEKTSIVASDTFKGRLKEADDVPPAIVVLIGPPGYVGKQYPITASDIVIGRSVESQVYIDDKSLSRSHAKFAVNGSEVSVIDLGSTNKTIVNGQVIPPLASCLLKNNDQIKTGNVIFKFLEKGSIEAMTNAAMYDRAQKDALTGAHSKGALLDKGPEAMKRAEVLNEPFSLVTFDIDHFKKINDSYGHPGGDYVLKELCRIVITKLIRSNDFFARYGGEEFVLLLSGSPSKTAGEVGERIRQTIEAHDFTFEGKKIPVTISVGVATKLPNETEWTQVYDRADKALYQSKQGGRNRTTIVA

CdgA (Bd3125) = target: T4, CdgA (Bd3125) (Bdellovibrio bacteriovorus, UniProt Q6MIM9); experiment: equilibrium dialysis; assay type: binding; conditions: read-out: apparent Kd
T4 construct: MBP fusion, expressed in and purified from E. coli; MBP kept; degenerate GVNEF motif is natural
T4 sequence (Q6MIM9 1-496): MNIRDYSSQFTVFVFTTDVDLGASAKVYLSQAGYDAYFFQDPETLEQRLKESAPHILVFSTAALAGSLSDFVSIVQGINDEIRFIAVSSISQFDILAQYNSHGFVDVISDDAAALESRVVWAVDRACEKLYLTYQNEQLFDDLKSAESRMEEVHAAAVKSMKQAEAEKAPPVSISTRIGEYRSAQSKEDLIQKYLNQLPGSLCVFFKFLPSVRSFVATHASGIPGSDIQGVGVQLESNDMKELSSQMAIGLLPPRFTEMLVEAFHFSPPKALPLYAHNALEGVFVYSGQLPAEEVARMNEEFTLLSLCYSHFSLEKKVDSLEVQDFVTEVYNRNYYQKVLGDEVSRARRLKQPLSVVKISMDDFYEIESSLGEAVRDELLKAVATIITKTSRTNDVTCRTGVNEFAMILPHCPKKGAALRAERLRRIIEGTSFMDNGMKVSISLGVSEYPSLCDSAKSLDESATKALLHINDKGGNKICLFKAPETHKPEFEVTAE

SMILES	diguanylyl cyclase assay, HPLC (DgcA (Bd0367))	diguanylyl cyclase assay, HPLC (DgcC (Bd1434))	diguanylyl cyclase assay, HPLC (DgcB (Bd0742))	Kd (CdgA (Bd3125)) [nM]	diguanylyl cyclase assay, HPLC (DgcA (Bd0367); from GTP)	diguanylyl cyclase assay, HPLC (DgcC (Bd1434); from GTP)
Nc1nc2c(ncn2[C@@H]2O[C@H](COP(=O)(O)OP(=O)(O)OP(=O)(O)O)[C@@H](O)[C@H]2O)c(=O)[nH]1 [GTP]	DgcA, DgcB and DgcC proved to function as diguanylyl cyclases (Figure 1A–C)	DgcA, DgcB and DgcC proved to function as diguanylyl cyclases (Figure 1A–C)	DgcA, DgcB and DgcC proved to function as diguanylyl cyclases (Figure 1A–C)			
Nc1nc2c(ncn2[C@@H]2O[C@@H]3COP(=O)(O)O[C@H]4[C@@H](O)[C@H](n5cnc6c(=O)[nH]c(N)nc65)O[C@@H]4COP(=O)(O)O[C@H]3[C@H]2O)c(=O)[nH]1 [c-di-GMP]				~2000	HPLC profiles show peaks of c-di-GMP (product) and GTP (substrate)	HPLC profiles show peaks of c-di-GMP (product) and GTP (substrate)

From paper PMC3271064, “Discrete Cyclic di-GMP-Dependent Control of Bacterial Predation versus Axenic Growth in Bdellovibrio bacteriovorus” (PLoS Pathogens, 2012)
